Assay results published in US5464616A, “6β-substituted penicillanic acids as beta-lactamase inhibitors” (Synphar Laboratories, Ind., priority 1994, dated 1995).

Legend:
bacteria = details: in combination with amoxycillin, ampicillin, piperacillin, respectively; cited from earlier work
[1] = tested on: class C cephalosporinases; details: chromosomally encoded inducible cephalosporinases; cited from earlier work
[2] = target: T1, cephalosporinase, which was isolated from Enterobacter cloacae (Enterobacter cloacae, UniProt P05364); assay: inhibition of representative cephalosporinase isolated from Enterobacter cloacae; type: biochemical; details: read-out: IC50 against representative cephalosporinase
T1 construct: which was isolated from Enterobacter cloacae; endogenous in cells; host or cells: Enterobacter cloacae
T1 sequence (P05364 21-381): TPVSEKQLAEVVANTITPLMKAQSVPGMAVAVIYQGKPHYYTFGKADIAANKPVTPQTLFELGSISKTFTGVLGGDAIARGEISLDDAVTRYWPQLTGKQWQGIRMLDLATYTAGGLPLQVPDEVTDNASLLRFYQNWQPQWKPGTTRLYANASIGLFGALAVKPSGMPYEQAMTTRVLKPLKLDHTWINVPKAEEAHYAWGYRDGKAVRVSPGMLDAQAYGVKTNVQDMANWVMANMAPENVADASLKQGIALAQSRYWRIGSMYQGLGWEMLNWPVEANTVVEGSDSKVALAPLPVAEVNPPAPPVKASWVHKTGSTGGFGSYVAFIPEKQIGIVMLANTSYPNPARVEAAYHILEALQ
Text: […]. Because of such differences in IC50 value against different types of β-lactamases, these inhibitors are regarded as selective cephalosporinase-inhibitors at the low concentration.

Gram-negative bacteria = assay: whole cell bacteria: antibacterial activity of the inhibitors alone and synergy with cephalothin; type: cell-based; details: for synergistic activity against Gram-negative bacteria: in combination with cephalothin, whole cell bacteria; for antibacterial activity of the inhibitors themselves: inhibitor alone
E. aerogenes S95 = assay: MIC of cephalothin alone and in combination with inhibitor, E. aerogenes S95 (microbroth dilution); type: cell-based; details: Klebsiella aerogenes, cephalothin alone, MHB, 5 × 10^5 cfu/ml, 16 h/35° C.
Description: (§1) MIC values of cephalothin in combination with
(§2) β-lactamase inhibitors Ia and Ic.
(§3) Microbroth Dilution Method, MHB; Inoculum, 5 × 10^5 cfu/ml;
(§4) Incubation, 16 h/35° C.;
(§5) *Concentration of inhibitor = 5 mg/ml (fixed).

C. freundii S40 = assay: MIC of cephalothin alone and in combination with inhibitor, C. freundii S40 (microbroth dilution); type: cell-based; details: Citrobacter freundii, cephalothin alone, MHB, 5 × 10^5 cfu/ml, 16 h/35° C.
Description: as §1, §2, §3, §4, §5

SMILES	enhancement of effectiveness of conventional antibiotics (bacteria)	protection of antibiotics from class C cephalosporinases [1]	IC50 [2] [nM]	further results
O=C(O)[C@H]1/C(=C/CO)O[C@@H]2CC(=O)N21 [clavulanic acid]	proved to enhance the effectiveness of conventional antibiotics against many bacteria	failed to protect the antibiotics	–	–
C=CCOC(=O)C(C(=O)N[C@@H]1C(=O)N2[C@@H]1SC(C)(C)[C@@H]2C(=O)O)=C1SC=CS1 [IIa, 6β-[(Allyloxycarbonyl)(1,3-dithiolen-2-ylidene)acetamido]-2,2-dimethylpenam-3-carboxylic acid]	–	–	7	–
C[C@]1(Cn2ccnn2)[C@H](C(=O)O)N2C(=O)C[C@H]2S1(=O)=O [tazobactam]	proved to enhance the effectiveness of conventional antibiotics against many bacteria	failed to protect the antibiotics	–	–
CC1(C)S[C@@H]2[C@H](NC(=O)C(C(=O)O)=C3SCCS3)C(=O)N2[C@H]1C(=O)O [Ic, Disodium 6β-[carboxylato(1,3-dithiolan-2-ylidene)acetamido]-2,2-dimethylpenam-3-carboxylate]	–	–	9.1	synergistic activity against Gram-negative bacteria (Gram-negative bacteria): synergistic activity; antibacterial activity of the inhibitors themselves (Gram-negative bacteria): no antibacterial activity at the concentration up to 128 mg/ml
CCOC(=O)C(C(=O)N[C@@H]1C(=O)N2[C@@H]1SC(C)(C)[C@@H]2C(=O)O)=C1SCCS1 [Ib, 6β-[(1,3-Dithiolan-2-ylidene)(ethoxycarbonyl)acetamido]-2,2-dimethylpenam-3-carboxylic acid]	–	–	0.49	–
CC(=O)OCC1=C(C(=O)O)N2C(=O)[C@@H](NC(=O)Cc3cccs3)[C@H]2SC1 [Cephalothin]	–	–	–	MIC (E. aerogenes S95): > 256 µg/mL; MIC (C. freundii S40): 256 µg/mL
COC(=O)C(C(=O)N[C@@H]1C(=O)N2[C@@H]1SC(C)(C)[C@@H]2C(=O)O)=C1SCCS1 [Ia, 6β-[(1,3-Dithiolan-2-ylidene)(methoxycarbonyl)acetamido]-2,2-dimethylpenam-3-carboxylic acid]	–	–	0.61	synergistic activity against Gram-negative bacteria (Gram-negative bacteria): synergistic activity; antibacterial activity of the inhibitors themselves (Gram-negative bacteria): no antibacterial activity at the concentration up to 128 mg/ml
CC1(C)[C@H](C(=O)O)N2C(=O)C[C@H]2S1(=O)=O [sulbactam]	proved to enhance the effectiveness of conventional antibiotics against many bacteria	failed to protect the antibiotics	–	–
CCOC(=O)C(C(=O)N[C@@H]1C(=O)N2[C@@H](C(=O)O)C(C)(C)S(=O)(=O)[C@H]12)=C1SCCS1 [Id, 6β-[(1,3-Dithiolan-2-ylidene)(ethoxycarbonyl)acetamido]-2,2-dimethylpenam-3-carboxylic acid 1,1-dioxide]	–	–	150	–
